Results on 15 compounds are retold here after US11524966B1 (Valo Early Discovery, Inc., priority 2017, dated 2022).

Structures are written as SMILES.

For one assay, the target named is T1, USP28 (His-tagged USP28-FL-mammalian) (Homo sapiens, UniProt Q96RU2).
T1 construct: Expression of USP28 (1-1077)-TEV-6*His (pTT5 vector); made in house; host or cells: Expi293f cells (pTT5 vector)
T1 sequence (Q96RU2 1-1077): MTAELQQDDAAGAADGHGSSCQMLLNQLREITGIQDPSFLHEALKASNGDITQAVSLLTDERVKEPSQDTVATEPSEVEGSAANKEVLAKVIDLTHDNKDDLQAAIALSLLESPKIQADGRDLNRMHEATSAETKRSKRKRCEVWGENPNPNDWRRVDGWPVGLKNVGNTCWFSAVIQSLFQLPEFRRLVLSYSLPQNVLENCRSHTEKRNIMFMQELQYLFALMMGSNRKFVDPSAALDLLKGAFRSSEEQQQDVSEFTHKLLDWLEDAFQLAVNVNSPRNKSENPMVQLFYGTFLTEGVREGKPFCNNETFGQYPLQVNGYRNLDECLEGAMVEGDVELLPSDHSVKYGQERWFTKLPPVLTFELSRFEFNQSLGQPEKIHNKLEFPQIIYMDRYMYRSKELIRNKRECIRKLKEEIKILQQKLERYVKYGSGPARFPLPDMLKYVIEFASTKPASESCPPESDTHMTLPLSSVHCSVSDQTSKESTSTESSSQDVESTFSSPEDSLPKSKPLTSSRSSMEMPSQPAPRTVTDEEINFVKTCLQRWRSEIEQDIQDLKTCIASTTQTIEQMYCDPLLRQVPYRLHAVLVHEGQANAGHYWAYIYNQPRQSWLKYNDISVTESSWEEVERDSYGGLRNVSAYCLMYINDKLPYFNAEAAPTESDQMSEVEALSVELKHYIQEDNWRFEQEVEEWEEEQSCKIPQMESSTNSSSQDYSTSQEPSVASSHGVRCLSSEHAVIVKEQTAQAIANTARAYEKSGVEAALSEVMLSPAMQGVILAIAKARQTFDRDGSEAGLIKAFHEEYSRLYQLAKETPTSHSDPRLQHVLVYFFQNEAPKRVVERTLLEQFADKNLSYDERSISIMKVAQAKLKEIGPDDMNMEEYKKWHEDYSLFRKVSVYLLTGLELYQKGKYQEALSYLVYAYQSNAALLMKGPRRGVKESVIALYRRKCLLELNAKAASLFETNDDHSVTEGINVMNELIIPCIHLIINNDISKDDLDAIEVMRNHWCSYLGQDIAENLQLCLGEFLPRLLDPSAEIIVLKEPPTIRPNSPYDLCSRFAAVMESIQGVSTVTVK
Briefly: Ubiquitin-Rhodamine 110 Assay for USP28 Activity, Example A-1(a). The class given is biochemical. Conditions: Ubiquitin-Rhodamine 110 assay, Example A-1(a); read-out: USP28 A-1(a) IC50 range. Summed up:
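Full-length His-tagged human USP28 (1-1077, Expi293f-expressed), […], with 25 nM Ub-Rh110 (<<Km) in pH 8.0 Tris buffer with BME, BGG, Triton X-100. 10-point dilutions (25 μM-1.3 nM), 45 min at room temperature, citric acid stop, fluorescence 485/535 nm; IC50 by 4-parameter fit.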
As usually defined, the IC50 is the concentration needed to halve the response being measured. `Cc1cc(C)c2c(N)c(C(=O)N[C@H]3COc4cc(N5CC6CNCC(C5)O6)cc(F)c4C3)sc2n1` [Example 10-13, N-((3R)-7-(9-oxa-3,7-diazabicyclo[3.3.1]nonan-3-yl)-5-fluorochroman-3-yl)-3-amino-4,6-dimethylthieno[2,3-b]pyridine-2-carboxamide]: the IC50 is 1 to 50 nM.
The same measure, in the same setting: next, `Cc1cc(C)c2c(N)c(C(=O)N[C@H]3COc4cc(N5CC6CC(C5)N6)cc(F)c4C3)sc2n1` [Example 10-7, N-((3R)-7-(3,6-diazabicyclo[3.1.1]heptan-3-yl)-5-fluorochroman-3-yl)-3-amino-4,6-dimethylthieno[2,3-b]pyridine-2-carboxamide]: 1 to 50 nM; `Cc1ccc2c(N)c(C(=O)N[C@H]3COc4cc(N5CCNCC5)cc(F)c4C3)sc2n1` [Example 10-1, (R)-3-amino-N-(5-fluoro-7-(piperazin-1-yl)chroman-3-yl)-6-methylthieno[2,3-b]pyridine-2-carboxamide]: 1 to 50 nM; `Cc1cnc2c(N)c(C(=O)N[C@H]3CCc4cc(N5CCNC[C@@H](O)C5)ccc4C3)sc2n1` (single isomer, unassigned) [Example 7-4]: 50 to 200 nM.
The same measure, in the same setting: the same measure for `Cc1cnc2c(N)c(C(=O)N[C@H]3COc4cc(N5CC6CC(C5)N6)cc(F)c4C3)sc2n1` [Example 10-8, N-((3R)-7-(3,6-diazabicyclo[3.1.1]heptan-3-yl)-5-fluorochroman-3-yl)-7-amino-3-methylthieno[2,3-b]pyrazine-6-carboxamide]: 1 to 50 nM; for `COc1ccc2c(N)c(C(=O)N[C@@H]3CCc4cc(N5CC6CCC(C5)N6)ccc4C3)sc2n1` (single isomer, unassigned) [Example 11-6]: 200 to 2000 nM.
On the same count and under the same terms, the same measure for `Cc1ccc2c(N)c(C(=O)N[C@H]3CCc4cc(N5CCNCC5)cc(F)c4C3)sc2n1` (single isomer, unassigned) [Example 11-11]: 200 to 2000 nM.

The same assay, now with this note: Ubiquitin-Rhodamine 110 assay, format Example A-1(a); read-out: USP28 A-1(a) IC50 range.
Take `CO[C@H]1CN(c2ccc3c(n2)CC[C@@H](NC(=O)c2sc4nc(C)cnc4c2N)C3)C[C@@H]1N` (single isomer, unassigned) [Example 23-2]: the IC50 was > 2000 nM.
Same read-out and setting: next, `Cc1ccc2c(N)c(C(=O)N[C@H]3COc4cc(N5CCNCC5)c(Cl)cc4C3)sc2n1` [Example 13-5, (R)-3-amino-N-(6-chloro-7-(piperazin-1-yl)chroman-3-yl)-6-methylthieno[2,3-b]pyridine-2-carboxamide]: > 2000 nM.
Still for that read-out and setting: next, `Cc1ccc2c(N)c(C(=O)N[C@@H]3CCc4cc(N5CCNCC5)c(F)cc4C3)sc2n1` (single isomer, unassigned) [Example 21-7]: 50 to 200 nM; `Cc1ccc2c(N)c(C(=O)N[C@H]3CCc4cc(N5CCNCC5)cnc4C3)sc2n1` (single isomer, unassigned) [Example 15-2]: 200 to 2000 nM.
On the same count and under the same terms, next, `Cc1ccc2c(N)c(C(=O)N[C@@H]3CCc4c(ccc(N5CCNCC5)c4F)C3)sc2n1` (single isomer, unassigned) [Example 21-5]: 1 to 50 nM.
Take `Cc1ccc2c(N)c(C(=O)N[C@H]3COc4cc(N5CC6CCC(C5)N6)nc(F)c4C3)sc2n1` [Example 17, N-((3R)-7-(3,8-Diazabicyclo[3.2.1]octan-3-yl)-5-fluoro-3,4-dihydro-2H-pyrano[3,2-c]pyridin-3-yl)-3-amino-6-methylthieno[2,3-b]pyridine-2-carboxamide]: the half-inhibitory concentration (IC50) was 1 to 50 nM.
The same measure, in the same setting: the same measure for `Cc1ccc2c(N)c(C(=O)N[C@H]3CCc4cc(N5CC6CCC(C5)N6)c(F)cc4C3)sc2n1` (single isomer, unassigned) [Example 21-4]: 200 to 2000 nM; for `CO[C@H]1CN(c2ccc3c(n2)CC[C@H](NC(=O)c2sc4nc(C)ccc4c2N)C3)C[C@@H]1N` [Example 23-4, 3-amino-N-[(6S)-2-[(3S,4S)-3-amino-4-methoxypyrrolidin-1-yl]-5,6,7,8-tetrahydroquinolin-6-yl]-6-methylthieno[2,3-b]pyridine-2-carboxamide]: 50 to 200 nM.
